ChEMBL document CHEMBL1201862, “PubChem BioAssay data set” (2004)
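Assay format: 96-well plates, 48-hour exposure. GI50: concentration for 50% inhibition of growth.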 The source made the active and inactive calls. Cut-off read from the data, not from the text of the source: active = GI50 up to about 1.1 µM and inactive = higher.

Legend:
Experiment in all cases: DTP human tumour cell line panel, 48 h
[1] = test system: HL-60
[2] = test system: DMS-114
[3] = test system: OVCAR-3
[4] = test system: KM-20L2
[5] = test system: LOX IMVI
[6] = test system: CAKI-1
[7] = test system: SNB-78
[8] = test system: SK-MEL-2
[9] = test system: TK-10
[10] = test system: K562
[11] = test system: LXFL 529
[12] = test system: IGROV-1
[13] = test system: M14
[14] = test system: SNB-19
[15] = test system: SF-539
[16] = test system: MOLT-4
[17] = test system: RXF 631
[18] = test system: DMS-273
[19] = test system: NCI-H226
[20] = test system: UACC-257
[21] = test system: RPMI-8226
[22] = test system: NCI-H23
[23] = test system: EKVX
[24] = test system: SK-MEL-28
[25] = test system: Malme-3M
[26] = test system: ACHN
[27] = test system: HCC 2998
[28] = test system: COLO 205
[29] = test system: HOP-18
[30] = test system: A498
[31] = test system: CCRF-CEM
[32] = test system: SK-MEL-5
[33] = test system: A549
[34] = test system: OVCAR-4
[35] = test system: KM12
[36] = test system: OVCAR-5
[37] = test system: SW-620
[38] = test system: RXF 393
[39] = test system: OVCAR-8
[40] = test system: HOP-92
[41] = test system: NCI-H522
[42] = test system: SNB-75
[43] = test system: HCT-15
[44] = test system: HOP-62
[45] = test system: SF-295
[46] = test system: UACC-62
[47] = test system: U-251
[48] = test system: HT-29
[49] = test system: NCI-H460
[50] = test system: SF-268
[51] = test system: DLD-1
[52] = test system: SN12C
[53] = test system: SK-OV-3
[54] = test system: UO-31
[55] = test system: 786-0
[56] = test system: HCT-116

CC(C)CC(N)C(=O)OCN1C(=O)C2C3C=CC(C2C1=O)C1C2C(=O)N(COC(=O)C(N)CC(C)C)C(=O)C2C31 (stereo unspecified)
GI50 [1]: 30.4 µM (inactive)
GI50 [2]: > 62.1 µM (inactive)
GI50 [3]: > 100 µM (inactive)
GI50 [4]: > 100 µM (inactive)
GI50 [5]: > 41.5 µM (inactive)
GI50 [6]: > 100 µM (inactive)
GI50 [7]: > 100 µM (inactive)
GI50 [8]: > 100 µM (inactive)
GI50 [9]: > 100 µM (inactive)
GI50 [10]: > 100 µM (inactive)
GI50 [11]: > 100 µM (inactive)
GI50 [12]: > 100 µM (inactive)
GI50 [13]: > 100 µM (inactive)
GI50 [14]: > 100 µM (inactive)
GI50 [15]: > 100 µM (inactive)
GI50 [16]: > 100 µM (inactive)
GI50 [17]: > 100 µM (inactive)
GI50 [18]: 97.3 µM (inactive)
GI50 [19]: > 100 µM (inactive)
GI50 [20]: > 100 µM (inactive)
GI50 [21]: > 48.2 µM (inactive)
GI50 [22]: > 100 µM (inactive)
GI50 [23]: > 100 µM (inactive)
GI50 [24]: > 100 µM (inactive)
GI50 [25]: > 100 µM (inactive)
GI50 [26]: > 100 µM (inactive)
GI50 [27]: > 100 µM (inactive)
GI50 [28]: > 92.3 µM (inactive)
GI50 [29]: > 100 µM (inactive)
GI50 [30]: > 100 µM (inactive)
GI50 [31]: 75.3 µM (inactive)
GI50 [32]: > 100 µM (inactive)
GI50 [33]: > 100 µM (inactive)
GI50 [34]: > 100 µM (inactive)
GI50 [35]: > 100 µM (inactive)
GI50 [36]: > 100 µM (inactive)
GI50 [37]: > 53.6 µM (inactive)
GI50 [38]: > 100 µM (inactive)
GI50 [39]: > 100 µM (inactive)
GI50 [40]: > 100 µM (inactive)
GI50 [41]: > 100 µM (inactive)
GI50 [42]: > 75 µM (inactive)
GI50 [43]: > 45 µM
GI50 [44]: > 100 µM (inactive)
GI50 [45]: > 100 µM (inactive)
GI50 [46]: > 100 µM (inactive)
GI50 [47]: > 100 µM (inactive)
GI50 [48]: > 100 µM (inactive)
GI50 [49]: > 59.7 µM (inactive)
GI50 [50]: > 100 µM (inactive)
GI50 [51]: > 86.7 µM (inactive)
GI50 [52]: > 100 µM (inactive)
GI50 [53]: > 100 µM (inactive)
GI50 [54]: > 100 µM (inactive)
GI50 [55]: > 100 µM (inactive)
GI50 [56]: > 43.8 µM (inactive)
